The target of experiment [1] is T1, human PPARdelta (Homo sapiens, UniProt Q03181).
T1 construct: human PPARdelta receptor (amino acids S139-Y441); expressed in transfected cells; host or cells: HEK cells, stably transfected (pcDNA3, CMV promoter)
T1 sequence (Q03181 139-441): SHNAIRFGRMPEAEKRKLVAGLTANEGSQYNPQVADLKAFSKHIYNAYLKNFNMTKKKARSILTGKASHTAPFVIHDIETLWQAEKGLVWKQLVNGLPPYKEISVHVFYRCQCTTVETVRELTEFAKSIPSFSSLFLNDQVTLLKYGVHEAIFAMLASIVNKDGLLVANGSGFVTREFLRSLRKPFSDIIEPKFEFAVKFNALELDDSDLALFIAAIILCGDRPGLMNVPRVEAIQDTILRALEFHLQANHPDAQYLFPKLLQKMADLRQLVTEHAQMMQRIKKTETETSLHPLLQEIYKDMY
Description: Cellular PPARdelta assay (HEK PPARdelta reporter cell line, luciferase). In kind it is cell-based. Particulars: GR-GAL4-humanPPARdelta-LBD. The protocol:
Determination of EC50 Values of PPAR Agonists in the Cellular PPARdelta Assay
(§1) The potency of substances which bind to human PPARdelta and activate it in an agonistic manner is analyzed using a stably transfected HEK cell line (HEK=human embryo kidney) which is referred to here as PPARdelta reporter cell line. In analogy to the assay described for PPARalpha, the PPARdelta reporter cell line also contains two genetic elements, a luciferase reporter element (pdeltaM-GAL4-Luc-Zeo) and a PPARdelta fusion protein (GR-GAL4-humanPPARdelta-LBD) which mediates expression of the luciferase reporter element depending on a PPARdelta ligand. The stably and constitutively expressed fusion protein GR-GAL4-humanPPARdelta-LBD binds in the cell nucleus of the PPARdelta reporter cell line via the GAL4 protein portion to the GAL4 DNA binding motifs 5′-upstream of the luciferase reporter element which is stably integrated in the genome of the cell line. There is only little expression of the luciferase reporter gene in the absence of a PPARdelta ligand if fatty acid-depleted fetal calf serum (cs-FCS) is used in the assay. PPARdelta ligands bind and activate the PPARdelta fusion protein and thereby stimulate expression of the luciferase reporter gene. The luciferase which is formed can be detected by means of chemiluminescence via an appropriate substrate.
The production of the stable PPARdelta reporter cell line is based on a stable HEK-cell clone which was stably transfected with a luciferase reporter element. This step was already described above in the section “construction of the PPARalpha reporter cell line”. In a second step, the PPARdelta fusion protein (GR-GAL4-humanPPARdelta-LBD was stably introduced into this cell clone. For this purpose, the cDNA coding for the N-terminal 76 amino acids of the glucocorticoid receptor (Accession # P04150) was linked to the cDNA section coding for amino acids 1-147 of the yeast transcription factor GAL4 (Accession # P04386). The cDNA of the ligand-binding domain of the human PPARdelta receptor (amino acids S139-Y441; Accession # L07592) was cloned in at the 3′-end of this GR-GAL4 construct. The fusion construct prepared in this way (GR-GAL4-humanPPARdelta-LBD) was recloned into the plasmid pcDNA3 (Invitrogen) in order to enable constitutive expression by the cytomegalovirus promoter. This plasmid was linearized with a restriction endonuclease and stably transfected into the previously described cell clone containing the luciferase reporter element. The resulting PPARdelta reporter cell line which contains a luciferase reporter element and constitutively expresses the PPARdelta fusion protein (GR-GAL4-human PPARdelta-LBD) was isolated by selection with zeocin (0.5 mg/ml) and G418 (0.5 mg/ml).
The activity of PPARdelta agonists is determined in a 3-day assay in exact analogy to the procedure already described for the PPARalpha reporter cell line except that the PPARdelta reporter cell line and a specific PPARdelta agonist was used as a standard to control test efficacy.

Experiment [2] deals with T2, human PPARalpha (Homo sapiens, UniProt Q07869).
T2 construct: human PPARalpha receptor (amino acids S167-Y468); expressed in transfected cells; host or cells: HEK cells, stably transfected (pcDNA3, CMV promoter)
T2 sequence (Q07869 167-468): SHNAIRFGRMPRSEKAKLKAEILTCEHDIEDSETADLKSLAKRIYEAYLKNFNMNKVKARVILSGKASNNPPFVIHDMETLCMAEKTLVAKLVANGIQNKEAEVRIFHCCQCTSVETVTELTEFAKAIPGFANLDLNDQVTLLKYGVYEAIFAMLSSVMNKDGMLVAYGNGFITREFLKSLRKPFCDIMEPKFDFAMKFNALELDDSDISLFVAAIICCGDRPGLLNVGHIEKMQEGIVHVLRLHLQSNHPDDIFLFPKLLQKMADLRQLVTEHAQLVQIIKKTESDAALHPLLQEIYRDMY
Description: Cellular PPARalpha assay (HEK PPARalpha reporter cell line, luciferase). Particulars: GR-GAL4-humanPPARalpha-LBD. In kind it is cell-based. The procedure:
Determination of EC50 Values of PPAR Agonists in the Cellular PPARalpha Assay
as §1, with “PPARalpha” for “PPARdelta”, “It” for “In analogy to the assay described for PPARalpha, the PPARdelta reporter cell line also”, “(GR-GAL4-humanPPARalpha-LBD)” for “(GR-GAL4-humanPPARdelta-LBD)”, “GR-GAL4-humanPPARalpha-LBD” for “GR-GAL4-humanPPARdelta-LBD”, “weak” for “little”, “stimulate the” for “stimulate”
The PPARalpha reporter cell line was prepared in two stages. Firstly, the luciferase reporter element was constructed and stably transfected into HEK cells. For this purpose, five binding sites of the yeast transcription factor GAL4 (Accession # AF264724) were cloned in 5′-upstream of a 68 bp-long minimal MMTV promoter (Accession # V01175). The minimal MMTV promoter section contains a CCAAT box and a TATA element in order to enable efficient transcription by RNA polymerase II. The cloning and sequencing of the GAL4-MMTV construct took place in analogy to the description of Sambrook J. et al. (Molecular cloning, Cold Spring Harbor Laboratory Press, 1989). Then the complete Photinus pyralis gene (Accession # M15077) was cloned in 3′-downstream of the GAL4-MMTV element. After sequencing, the luciferase reporter element consisting of five GAL4 binding sites, MMTV promoter and luciferase gene was recloned into a plasmid which confers zeocin resistance in order to obtain the plasmid pdeltaM-GAL4-Luc-Zeo. This vector was transfected into HEK cells in accordance with the statements in Ausubel, F. M. et al. (Current protocols in molecular biology, Vol. 1-3, John Wiley & Sons, Inc., 1995).
In a second step, the PPARalpha fusion protein (GR-GAL4-humanPPARalpha-LBD was introduced into the stable cell clone described. For this purpose, initially the cDNA coding for the N-terminal 76 amino acids of the glucocorticoid receptor (Accession # P04150) was linked to the cDNA section coding for amino acids 1-147 of the yeast transcription factor GAL4 (Accession # P04386). The cDNA of the ligand-binding domain of the human PPARalpha receptor (amino acids S167-Y468; Accession # S74349) was cloned in at the 3′-end of this GR-GAL4 construct. The fusion construct prepared in this way (GR-GAL4-humanPPARalpha-LBD) was recloned into the plasmid pcDNA3 (Invitrogen) in order to enable constitutive expression therein by the cytomegalovirus promoter. This plasmid was linearized with a restriction endonuclease and stably transfected into the previously described cell clone containing the luciferase reporter element. The finished PPARalpha reporter cell line which contains a luciferase reporter element and constitutively expresses the PPARalpha fusion protein (GR-GAL4-human PPARalpha-LBD) was isolated by selection with zeocin (0.5 mg/ml) and G418 (0.5 mg/ml).
The activity of PPARalpha agonists is determined in a 3-day assay, which is described below: […]

For experiment [3] the following is noted: diabetic animal model; cited from earlier work.
For experiment [4] the following is noted: obese, insulin resistant rhesus monkeys; cited from earlier work.

Broadly, the EC50 is the concentration giving half of the maximal effect. Read a low EC50 as an effect from little substance.

Some results are limits rather than exact numbers.

For the molecule `Cc1nc(-c2ccc(C(F)(F)F)cc2)sc1COc1ccc(-c2noc(=O)[nH]2)c(Cl)c1` [Example 4, 3-{2-Chloro-4-[4-methyl-2-(4-trifluoromethyl-phenyl)-thiazole-5-ylmethoxy]-phenyl}-4H-[1,2,4]oxadiazole-5-one], the EC50 came to 56 nM in experiment [1] and 1660 nM in experiment [2].

For `Cc1nc(-c2ccc(C(F)(F)F)cc2)sc1CSc1ccc(-c2noc(=O)[nH]2)cc1` [Example 5, 3-{4-[4-Methyl-2-(4-trifluoromethyl-phenyl)-thiazole-5-ylmethylsulfanyl]-phenyl}-4H-[1,2,4]oxadiazole-5-one], the EC50 turned out to be 68 nM in experiment [1] and 1330 nM in experiment [2].

For the molecule `CCCCc1nc(-c2ccc(C(F)(F)F)cc2)sc1COc1ccc(Cc2noc(=O)[nH]2)c(Cl)c1` [Example 10, 3-{4-[4-Butyl-2-(4-trifluoromethyl-phenyl)-thiazol-5-ylmethoxy]-2-chloro-benzyl}-4H-[1,2,4]oxadiazol-5-one], the figures for the concentration for a half-maximal effect (EC50) in experiment [1] and in experiment [2] were 11 nM and 770 nM, respectively.

In the case of `CCCCc1nc(-c2ccc(C(F)(F)F)cc2)sc1COc1cc(F)c(-c2noc(=O)[nH]2)c(F)c1` [Example 13, 3-{4-[4-Butyl-2-(4-trifluoromethyl-phenyl)-thiazol-5-ylmethoxy]-2,6-difluoro-phenyl}-4H-[1,2,4]oxadiazol-5-one], the EC50 in experiment [1] was determined as 10 nM; in experiment [2], 360 nM.

Consider `CCCCc1nc(-c2ccc(C(F)(F)F)cc2)sc1COc1ccc(-c2noc(=O)[nH]2)c(C(F)(F)F)c1` [Example 15, 3-{4-[4-Butyl-2-(4-trifluoromethyl-phenyl)-thiazol-5-ylmethoxy]-2-trifluoromethyl-phenyl}-4H-[1,2,4]oxadiazol-5-one], for which the EC50 was determined as 3 nM in experiment [1] and 150 nM in experiment [2].

Consider `CCCCc1nc(-c2ccc(C(F)(F)F)cc2)sc1COc1ccc(-c2noc(=O)[nH]2)c(OC)c1` [Example 18, 3-{4-[4-Butyl-2-(4-trifluoromethyl-phenyl)-thiazol-5-ylmethoxy]-2-methoxy-phenyl}-4H-[1,2,4]oxadiazol-5-one], for which the EC50 in experiment [1] is 15 nM; in experiment [2], greater than 10000 nM.

Regarding `O=c1[nH]c(-c2ccc(OCc3sc(-c4ccc(C(F)(F)F)cc4)nc3CCCCO)cc2Cl)no1` [Example 20, 3-{2-Chloro-4-[4-(4-hydroxy-butyl)-2-(4-trifluoromethyl-phenyl)-thiazol-5-ylmethoxy]-phenyl}-4H-[1,2,4]oxadiazol-5-one], the EC50 in experiment [1] stood at 55 nM; in experiment [2], 1560 nM.

For `CCCCc1nc(-c2ccc(C(F)(F)F)cc2)sc1COCc1ccc(-c2noc(=O)[nH]2)c(F)c1` [Example 28, 3-{4-[4-Butyl-2-(4-trifluoromethyl-phenyl)-thiazol-5-ylmethoxymethyl]-2-fluoro-phenyl}-4H-[1,2,4]oxadiazol-5-one], the EC50 in experiment [1] is 23 nM; in experiment [2], 120 nM.

Turning to `Cc1oc(-c2ccc(-c3ccccc3)cc2)nc1COc1ccc(-c2noc(=O)[nH]2)c(Cl)c1` [Example 30, 3-[4-(2-Biphenyl-4-yl-5-methyl-oxazol-4-ylmethoxy)-2-chloro-phenyl]-4H-[1,2,4]oxadiazol-5-one], the EC50 in experiment [1] worked out at 16 nM; in experiment [2] it was 250 nM.

Take `Cc1sc(-c2ccc(S(F)(F)(F)(F)F)cc2)nc1CCOc1ccc(-c2noc(=O)[nH]2)c(Cl)c1` [Example 32]: the EC50 is 310 nM in experiment [1] and 320 nM in experiment [2].

With `COCCOCc1nc(-c2ccc(C(F)(F)F)cc2)sc1COc1ccc(-c2noc(=O)[nH]2)c(Cl)c1` [Example 34, 3-{2-Chloro-4-[4-(2-methoxy-ethoxymethyl)-2-(4-trifluoromethyl-phenyl)-thiazol-5-ylmethoxy]-phenyl}-4H-[1,2,4]oxadiazol-5-one], the EC50 in experiment [1] worked out at 1 nM; in experiment [2], 230 nM.

With `O=c1[nH]c(-c2ccc(OCc3sc(-c4ccc(C(F)(F)F)cc4)nc3CCCOCc3ccccc3)cc2Cl)no1` [Example 50, 3-{4-[4-(3-Benzyloxy-propyl)-2-(4-trifluoromethyl-phenyl)-thiazol-5-ylmethoxy]-2-chloro-phenyl}-4H-[1,2,4]oxadiazol-5-one], the figures for the EC50 in experiment [1] and in experiment [2] were 0.7 nM and 420 nM, respectively.

Regarding `CCCc1c(OCCCOc2ccc(OCC(=O)O)cc2)ccc(C(C)=O)c1O` [Example L-165041], the plasma cholesterol result in experiment [3] is “raises”.

Take `Cc1cc(SCc2sc(-c3ccc(C(F)(F)F)cc3)nc2C)ccc1OCC(=O)O` [GW501516]: in experiment [4], the HDL-cholesterol result is “raises”, the insulin levels entry was “decreases”, the “plasma LDL-cholesterol” value is recorded as “decreases” and the triglycerides entry is “decreases”.

Values taken from US7709509B2, “Oxadiazolones and derivatives thereof as peroxisome proliferator-activated receptor (PPAR) delta agonists” (Sanofi-Aventis Deutschland GmbH, priority 2004, dated 2010).
